Experimental data taken from patent US11385220B2, “Methods for measuring oxidative stress in human body fluids” (CHUNGDO PHARM. CO., LTD, priority 2017, dated 2022).

Legend:
[1] = Crystallization of TBA-containing solution depending on amount of DMSO added (test paper, room temperature); format: physicochemical; details: test paper immersed in TBA solution, standing at room temperature, increasing amount of DMSO (FIG. 1)
Excerpt: FIG. 1 is an image showing crystallization of a solution containing TBA as a color indicator depending on the amount of DMSO added.

[2] = Solubility of TBA in solvent with or without DMSO; format: physicochemical
Description: In the prior art (Korean Patent Laid-open No. 10-2013-0088623), the amount of TBA added was only 2 to 3%.
In the conventional published Patent No. 10-2013-0088623, the addition of 2 to 3 parts by weight of 1,3-diethyl-2-thiobarbituric acid (TBA) was determined to be an appropriate concentration with respect to 100 parts by weight of distilled water due to the solubility problem of TBA thereof. However, in the present invention, the solubility problem of TBA is solved by adding DMSO. By adding DMSO, 3.5 parts or more by weight of TBA can be dissolved in 100 parts by weight of distilled water or ethanol.
In the present example, DMSO (dimethyl sulfoxide) was added to the TBA solution. […] DMSO is an important solvent that dissolves both polar and nonpolar compounds, and can be used in combination with various organic solvents as well as water.
It was difficult to dissolve TBA in an amount of 3.5 parts by weight or more based on 100 parts by weight of the solvent in accordance with the method of the conventional art disclosed in published Patent No. 10-2013-0088623, and although dissolved, TBA was precipitated during the process.

CCN1C(=O)CC(=O)N(CC)C1=S [TBA, 1,3-diethyl-2-thiobarbituric acid]
TBA recrystallization [1]: TBA recrystallization decreased | TBA dissolved in distilled water ([2]; distilled water, no DMSO): not dissolved in distilled water | TBA dissolved in ethanol ([2]; ethanol, no DMSO): about 3.5% | amount of TBA that can be dissolved by the conventional method ([2]; per 100 parts by weight of solvent, no DMSO (method of KR 10-2013-0088623), precipitated during the process): < 3.5 parts by weight
